Columns and labels:
S. aureus DSM 20231 [1] = test: fitness (endpoint OD595 vs no drug) (fraction); higher = more growth
Summary of the method: (§1)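 With the first reading as background, OD595 was measured every 30 min for 14 h in 384-well plates kept at 37 °C and inoculated at OD595 0.01. TSB, LB Lennox or CY was the medium. Fitness is the optical density at the transition into stationary phase divided by the robust mean of no-drug control wells, with a cap of 1.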

S. aureus Newman [2] = test: as above
Summary of the method: as §1

S. pneumoniae D39V [3] = test: as above
Summary of the method: as §1

B. subtilis 168 [4] = test: Bliss interaction score (quartile over a dose matrix) (fitness difference); higher = more antagonism (negative = synergy)
Summary of the method: (§2)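 Each plate was normalised to the robust mean of its own no-drug wells, using OD595 at entry into stationary phase, with values capped at 1. This normalised growth is the fitness value. The Bliss score is the difference between observed and product-expected fitness, with single-drug fitness inferred from the combination data and quartiles taken over technical, biological and donor/recipient replicates.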

S. aureus DSM 20231 [5] = test: as above
Summary of the method: as §2

S. aureus Newman [6] = test: as above
Summary of the method: as §2

S. pneumoniae D39V [7] = test: as above
Summary of the method: as §2

B. subtilis 168 [8] = test: fitness (endpoint OD595 vs no drug) (fraction); higher = more growth
Summary of the method: as §1
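Throughout, for Bliss interaction score (quartile over a dose matrix): first quartile when negative (synergy) and third quartile when positive (antagonism).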

CO/N=C(\C(=O)N[C@@H]1C(=O)N2C(C(=O)O)=C(COC(C)=O)CS[C@H]12)c1csc(N)n1 [Cefotaxime] + CN[C@H](CC(C)C)C(=O)N[C@H]1C(=O)N[C@@H](CC(N)=O)C(=O)N[C@H]2C(=O)N[C@H]3C(=O)N[C@H](C(=O)N[C@H](C(=O)O)c4cc(O)cc(O)c4-c4cc3ccc4O)[C@H](O)c3ccc(c(Cl)c3)Oc3cc2cc(c3O[C@@H]2O[C@H](CO)[C@@H](O)[C@H](O)[C@H]2O[C@H]2C[C@](C)(N)[C@H](O)[C@H](C)O2)Oc2ccc(cc2Cl)[C@H]1O [Vancomycin]
Conditions	fitness
S. aureus DSM 20231 [1], first compound 0.039 µg/mL, partner 0.1875 µg/mL	0.791
S. aureus DSM 20231 [1], first compound 0.039 µg/mL, partner 0.375 µg/mL	0.78
S. aureus DSM 20231 [1], first compound 0.039 µg/mL, partner 0.75 µg/mL	0.805
S. aureus DSM 20231 [1], first compound 0.078 µg/mL, partner 0.1875 µg/mL	0.715
S. aureus DSM 20231 [1], first compound 0.078 µg/mL, partner 0.375 µg/mL	0.795
S. aureus DSM 20231 [1], first compound 0.078 µg/mL, partner 0.75 µg/mL	0.752
S. aureus DSM 20231 [1], first compound 0.156 µg/mL, partner 0.1875 µg/mL	0.629
S. aureus DSM 20231 [1], first compound 0.156 µg/mL, partner 0.375 µg/mL	0.698
S. aureus DSM 20231 [1], first compound 0.156 µg/mL, partner 0.75 µg/mL	0.772
S. aureus DSM 20231 [1], first compound 0.312 µg/mL, partner 0.1875 µg/mL	0.641
S. aureus DSM 20231 [1], first compound 0.312 µg/mL, partner 0.375 µg/mL	0.733
S. aureus DSM 20231 [1], first compound 0.312 µg/mL, partner 0.75 µg/mL	0.82
S. aureus Newman [2], first compound 0.078 µg/mL, partner 0.1875 µg/mL	0.723
S. aureus Newman [2], first compound 0.078 µg/mL, partner 0.375 µg/mL	0.758
S. aureus Newman [2], first compound 0.078 µg/mL, partner 0.75 µg/mL	0.761
S. aureus Newman [2], first compound 0.156 µg/mL, partner 0.1875 µg/mL	0.62
S. aureus Newman [2], first compound 0.156 µg/mL, partner 0.375 µg/mL	0.648
S. aureus Newman [2], first compound 0.156 µg/mL, partner 0.75 µg/mL	0.614
S. aureus Newman [2], first compound 0.625 µg/mL, partner 0.1875 µg/mL	0.0427
S. aureus Newman [2], first compound 0.625 µg/mL, partner 0.375 µg/mL	0.0413
S. aureus Newman [2], first compound 0.625 µg/mL, partner 0.75 µg/mL	0.0855
S. aureus Newman [2], first compound 1.25 µg/mL, partner 0.1875 µg/mL	0.0418
S. aureus Newman [2], first compound 1.25 µg/mL, partner 0.375 µg/mL	0.0511
S. aureus Newman [2], first compound 1.25 µg/mL, partner 0.75 µg/mL	0.0481
S. aureus Newman [2], first compound 2.5 µg/mL, partner 0.1875 µg/mL	0.036
S. aureus Newman [2], first compound 2.5 µg/mL, partner 0.375 µg/mL	0.0526
S. aureus Newman [2], first compound 2.5 µg/mL, partner 0.75 µg/mL	0.0388
S. pneumoniae D39V [3], first compound 0.0018 µg/mL, partner 0.03125 µg/mL	≥ 1
S. pneumoniae D39V [3], first compound 0.0018 µg/mL, partner 0.0625 µg/mL	0.892
S. pneumoniae D39V [3], first compound 0.0018 µg/mL, partner 0.125 µg/mL	0.907
S. pneumoniae D39V [3], first compound 0.0018 µg/mL, partner 0.25 µg/mL	0.909
S. pneumoniae D39V [3], first compound 0.0018 µg/mL, partner 0.5 µg/mL	0.0621
S. pneumoniae D39V [3], first compound 0.0035 µg/mL, partner 0.03125 µg/mL	0.94
S. pneumoniae D39V [3], first compound 0.0035 µg/mL, partner 0.0625 µg/mL	0.803
S. pneumoniae D39V [3], first compound 0.0035 µg/mL, partner 0.25 µg/mL	0.793
S. pneumoniae D39V [3], first compound 0.0035 µg/mL, partner 0.5 µg/mL	0.047
S. pneumoniae D39V [3], first compound 0.007 µg/mL, partner 0.25 µg/mL	0.257
S. pneumoniae D39V [3], first compound 0.007 µg/mL, partner 0.5 µg/mL	0.0521

fitness, S. aureus Newman [2], one replicate
Conditions	partner 0.1875 µg/mL	partner 0.375 µg/mL	partner 0.75 µg/mL
first compound 0.039 µg/mL	0.732	0.867	0.784
first compound 0.312 µg/mL	0.34	0.353	0.395

Conditions	Bliss interaction score
B. subtilis 168 [4]	-0.0945
S. aureus DSM 20231 [5]	-0.0428
S. aureus Newman [6]	-0.0425
S. pneumoniae D39V [7]	-0.084

CO/N=C(\C(=O)N[C@@H]1C(=O)N2C(C(=O)O)=C(COC(C)=O)CS[C@H]12)c1csc(N)n1 [Cefotaxime] + Cn1nnc(-c2ccc(-c3ccc(N4C[C@H](CO)OC4=O)cc3F)cn2)n1 [Tedizolid]
S. aureus DSM 20231 [1], first compound 0.039 µg/mL, one replicate
Conditions	fitness
partner 0.0625 µg/mL	0.806
partner 0.125 µg/mL	0.762
partner 0.25 µg/mL	0.643

fitness
Conditions	partner 0.03125 µg/mL	partner 0.0625 µg/mL	partner 0.125 µg/mL	partner 0.25 µg/mL	partner 0.5 µg/mL
S. aureus DSM 20231 [1], first compound 0.078 µg/mL	–	0.767	0.718	0.532	–
S. aureus DSM 20231 [1], first compound 0.156 µg/mL	–	0.761	0.608	0.509	–
S. aureus DSM 20231 [1], first compound 0.312 µg/mL	–	0.691	0.602	0.448	–
S. aureus Newman [2], first compound 0.078 µg/mL	–	0.592	0.475	0.217	–
S. aureus Newman [2], first compound 0.156 µg/mL	–	0.455	0.338	0.0974	–
S. aureus Newman [2], first compound 0.312 µg/mL	–	0.232	0.145	0.0726	–
S. aureus Newman [2], first compound 0.625 µg/mL	–	0.0654	0.0082	0.0399	–
S. aureus Newman [2], first compound 1.25 µg/mL	–	0.021	0.0172	0.03	–
S. aureus Newman [2], first compound 2.5 µg/mL	–	0.0122	0.0108	0.0325	–
S. pneumoniae D39V [3], first compound 0.0018 µg/mL	0.968	0.969	0.844	0.482	0.172
S. pneumoniae D39V [3], first compound 0.0035 µg/mL	0.953	0.972	0.847	0.468	0.14
S. pneumoniae D39V [3], first compound 0.007 µg/mL	0.95	0.958	0.812	0.427	0.104

Conditions	Bliss interaction score
B. subtilis 168 [4]	0.0923
S. aureus DSM 20231 [5]	0.114
S. aureus Newman [6]	-0.105
S. pneumoniae D39V [7]	0.0955

COc1cccc2c1C(=O)c1c(O)c3c(c(O)c1C2=O)C[C@@](O)(C(=O)CO)C[C@@H]3O[C@H]1C[C@H](N)[C@H](O)[C@H](C)O1 [Doxorubicin] + Cn1nnc(-c2ccc(-c3ccc(N4C[C@H](CO)OC4=O)cc3F)cn2)n1 [Tedizolid]
fitness
Conditions	partner 0.03125 µg/mL	partner 0.0625 µg/mL	partner 0.125 µg/mL	partner 0.25 µg/mL	partner 0.5 µg/mL
S. aureus DSM 20231 [1], first compound 0.625 µg/mL	–	0.813	0.728	0.339	–
S. aureus DSM 20231 [1], first compound 1.25 µg/mL	–	0.783	0.7	0.374	–
S. aureus DSM 20231 [1], first compound 2.5 µg/mL	–	0.738	0.673	–	–
S. aureus Newman [2], first compound 0.625 µg/mL	–	0.786	0.758	–	–
S. aureus Newman [2], first compound 1.25 µg/mL	–	0.751	0.731	–	–
S. aureus Newman [2], first compound 2.5 µg/mL	–	0.693	0.655	–	–
S. pneumoniae D39V [3], first compound 0.25 µg/mL	0.897	0.909	0.747	0.288	0.131
S. pneumoniae D39V [3], first compound 0.5 µg/mL	0.903	0.938	0.748	0.288	0.114
S. pneumoniae D39V [3], first compound 1 µg/mL	0.917	0.953	0.774	0.282	0.11

Conditions	Bliss interaction score
B. subtilis 168 [4]	0.0912
S. aureus DSM 20231 [5]	-0.0759
S. aureus Newman [6]	-0.0534
S. pneumoniae D39V [7]	-0.0807

C[C@@H]1O[C@@H]1P(=O)(O)O [Fosfomycin] + C[n+]1ccc(-c2cc[n+](C)cc2)cc1 [Paraquat]
fitness
Conditions	partner 1.25 µg/mL	partner 1.5 µg/mL	partner 2.5 µg/mL	partner 3 µg/mL	partner 5 µg/mL	partner 6 µg/mL
B. subtilis 168 [8], first compound 1.562 µg/mL	0.681	–	0.673	–	0.567	–
B. subtilis 168 [8], first compound 3.124 µg/mL	0.529	–	0.598	–	0.519	–
B. subtilis 168 [8], first compound 6.248 µg/mL	0.381	–	0.386	–	0.3	–
S. aureus DSM 20231 [1], first compound 0.781 µg/mL	0.717	–	0.7	–	0.702	–
S. aureus DSM 20231 [1], first compound 1.562 µg/mL	0.593	–	0.551	–	0.585	–
S. aureus DSM 20231 [1], first compound 3.124 µg/mL	0.481	–	0.51	–	0.476	–
S. aureus Newman [2], first compound 0.781 µg/mL	0.542	–	0.546	–	0.574	–
S. aureus Newman [2], first compound 1.562 µg/mL	0.468	–	0.47	–	0.483	–
S. aureus Newman [2], first compound 3.124 µg/mL	0.0901	–	0.116	–	0.169	–
S. pneumoniae D39V [3], first compound 1.25 µg/mL	–	0.985	–	0.959	–	0.985
S. pneumoniae D39V [3], first compound 2.5 µg/mL	–	0.974	–	0.973	–	0.97
S. pneumoniae D39V [3], first compound 5 µg/mL	–	0.812	–	0.831	–	0.791

Conditions	Bliss interaction score
B. subtilis 168 [4]	-0.0619
S. aureus DSM 20231 [5]	-0.101
S. aureus Newman [6]	-0.12
S. pneumoniae D39V [7]	-0.0411
